# Test results as given in patent US20250101023A1, “HETEROARYL DERIVATIVE AND USES THEREOF” (IUCF-HYU (INDUSTRY-UNIVERSITY COOPERATION FOUNDATION …, priority 2022, published 2025).
# Key:
# [1] = test system: HCC1954 xenograft; test: HCC1954 xenograft model, anticancer efficacy; assay type: in vivo, mouse; details: 20 mg/kg and 40 mg/kg, i.p. twice a week
# Protocol: (§1) A mouse efficacy experiment was conducted after obtaining approval from the Laboratory Animal Ethics Committee of GenNBio (Review No.: GN-IACUC-Research 22-02-07). SK-Br3 and HCC-1954 cells (1×10^6 cells each) mixed with Matrigel (BD Biosciences) were […] injected into 5-week-old female Balb/c nude mice (Orient Bio, Seongnam, Republic of Korea). After tumors reached a size of about 100 mm^3, the compound, trastuzumab (20 mg/kg), and the like were intraperitoneally injected into mice (n=8 per group)(vehicle: 8% DMSO, 4% Tween-80, 88% PBS). The tumor size was measured twice weekly for about 4 weeks and calculated as follows. Volume (mm^3)=(a×b^2)/2; “a”, maximum diameter; “b”, vertical diameter
# [2] = target: SIK1 (Homo sapiens (Human), UniProt P57059); test: Kinome-wide profiling; assay type: biochemical; details: read-out: % Residual Activity (mean)
# [3] = target: CDK2/cyclin E2 (Homo sapiens (Human), UniProt P24941); test: Kinome-wide profiling; assay type: biochemical; details: read-out: % Residual Activity (mean)
# [4] = target: LIMK1 (Homo sapiens (Human), UniProt P53667); test: Kinome-wide profiling; assay type: biochemical; details: read-out: % Residual Activity (mean)
# [5] = target: IKKb/IKBKB (Homo sapiens (Human), UniProt O14920); test: Kinome-wide profiling; assay type: biochemical; details: read-out: % Residual Activity (mean)
# [6] = target: SLK/STK2 (Homo sapiens (Human), UniProt Q9H2G2); test: Kinome-wide profiling; assay type: biochemical; details: read-out: % Residual Activity (mean)
# [7] = target: MNK1 (Homo sapiens (Human), UniProt Q9BUB5); test: Kinome-wide profiling; assay type: biochemical; details: read-out: % Residual Activity (mean)
# [8] = target: STK25/YSK1 (Homo sapiens (Human), UniProt O00506); test: Kinome-wide profiling; assay type: biochemical; details: read-out: % Residual Activity (mean)
# [9] = target: PKCd (Homo sapiens (Human), UniProt Q05655); test: Kinome-wide profiling; assay type: biochemical; details: read-out: % Residual Activity (mean)
# [10] = target: CDK17/cyclin Y (PCTK2) (Homo sapiens (Human), UniProt Q00537); test: Kinome-wide profiling; assay type: biochemical; details: read-out: % Residual Activity (mean)
# [11] = target: CAMK1g (Homo sapiens (Human), UniProt Q96NX5); test: Kinome-wide profiling; assay type: biochemical; details: read-out: % Residual Activity (mean)
# [12] = target: MEK3 (Homo sapiens (Human), UniProt P46734); test: Kinome-wide profiling; assay type: biochemical; details: read-out: % Residual Activity (mean)
# [13] = target: RIPK4 (Homo sapiens (Human), UniProt P57078); test: Kinome-wide profiling; assay type: biochemical; details: read-out: % Residual Activity (mean)
# [14] = target: NEK7 (Homo sapiens (Human), UniProt Q8TDX7); test: Kinome-wide profiling; assay type: biochemical; details: read-out: % Residual Activity (mean)
# [15] = target: MST4 (Homo sapiens (Human), UniProt Q9P289); test: Kinome-wide profiling; assay type: biochemical; details: read-out: % Residual Activity (mean)
# [16] = target: SNARK/NUAK2 (Homo sapiens (Human), UniProt Q9H093); test: Kinome-wide profiling; assay type: biochemical; details: read-out: % Residual Activity (mean)
# [17] = target: MEK5 (Homo sapiens (Human), UniProt Q13163); test: Kinome-wide profiling; assay type: biochemical; details: read-out: % Residual Activity (mean)
# [18] = target: CK1g1 (Homo sapiens (Human), UniProt Q9HCP0); test: Kinome-wide profiling; assay type: biochemical; details: read-out: % Residual Activity (mean)
# [19] = target: STK22D/TSSK1 (Homo sapiens (Human), UniProt Q9BXA7); test: Kinome-wide profiling; assay type: biochemical; details: read-out: % Residual Activity (mean)
# [20] = target: TIE2/TEK (Homo sapiens (Human), UniProt Q02763); test: Kinome-wide profiling; assay type: biochemical; details: read-out: % Residual Activity (mean)
# [21] = target: BLK (Homo sapiens (Human), UniProt P51451); test: Kinome-wide profiling; assay type: biochemical; details: read-out: % Residual Activity (mean)
# [22] = target: PKD2/PRKD2 (Homo sapiens (Human), UniProt Q9BZL6); test: Kinome-wide profiling; assay type: biochemical; details: read-out: % Residual Activity (mean)
# [23] = target: c-MER (Homo sapiens (Human), UniProt Q12866); test: Kinome-wide profiling; assay type: biochemical; details: read-out: % Residual Activity (mean)
# [24] = target: PIM1 (Homo sapiens (Human), UniProt P11309); test: Kinome-wide profiling; assay type: biochemical; details: read-out: % Residual Activity (mean)
# [25] = target: NEK3 (Homo sapiens (Human), UniProt P51956); test: Kinome-wide profiling; assay type: biochemical; details: read-out: % Residual Activity (mean)
# [26] = Body weight in SK-Br3 xenograft model; assay type: in vivo, mouse; details: 10 mg/kg and 20 mg/kg, i.p. twice a week
# Protocol: as §1
# [27] = target: PKCIOTA (Homo sapiens (Human), UniProt P41743); test: Kinome-wide profiling; assay type: biochemical; details: read-out: % Residual Activity (mean)
# [28] = target: TYK1/LTK (Homo sapiens (Human), UniProt P29376); test: Kinome-wide profiling; assay type: biochemical; details: read-out: % Residual Activity (mean)
# [29] = target: c-Src (Homo sapiens (Human), UniProt P12931); test: Kinome-wide profiling; assay type: biochemical; details: read-out: % Residual Activity (mean)
# [30] = target: CAMKK1 (Homo sapiens (Human), UniProt Q8N5S9); test: Kinome-wide profiling; assay type: biochemical; details: read-out: % Residual Activity (mean)
# [31] = test system: 371 human wild-type kinases; test: Kinome-wide inhibitory activity profiling (panel summary); assay type: biochemical; details: 10 μM; CDK1, 2, 3, 5, 7, 9, 17, 18 complexes, LKB1, EPHA3/4/5/6, EPHB2, DYRK1A/B, MAK, MYLK4, GSK3b, FES, CHK2, PAK5, ERK1
# [32] = target: MRCKa/CDC42BPA (Homo sapiens (Human), UniProt Q5VT25); test: Kinome-wide profiling; assay type: biochemical; details: read-out: % Residual Activity (mean)
# [33] = target: PAK6 (Homo sapiens (Human), UniProt Q9NQU5); test: Kinome-wide profiling; assay type: biochemical; details: read-out: % Residual Activity (mean)
# [34] = target: MRCKb/CDC42BPB (Homo sapiens (Human), UniProt Q9Y5S2); test: Kinome-wide profiling; assay type: biochemical; details: read-out: % Residual Activity (mean)
# Chain of CAMKK1 (Q8N5S9 whole entry): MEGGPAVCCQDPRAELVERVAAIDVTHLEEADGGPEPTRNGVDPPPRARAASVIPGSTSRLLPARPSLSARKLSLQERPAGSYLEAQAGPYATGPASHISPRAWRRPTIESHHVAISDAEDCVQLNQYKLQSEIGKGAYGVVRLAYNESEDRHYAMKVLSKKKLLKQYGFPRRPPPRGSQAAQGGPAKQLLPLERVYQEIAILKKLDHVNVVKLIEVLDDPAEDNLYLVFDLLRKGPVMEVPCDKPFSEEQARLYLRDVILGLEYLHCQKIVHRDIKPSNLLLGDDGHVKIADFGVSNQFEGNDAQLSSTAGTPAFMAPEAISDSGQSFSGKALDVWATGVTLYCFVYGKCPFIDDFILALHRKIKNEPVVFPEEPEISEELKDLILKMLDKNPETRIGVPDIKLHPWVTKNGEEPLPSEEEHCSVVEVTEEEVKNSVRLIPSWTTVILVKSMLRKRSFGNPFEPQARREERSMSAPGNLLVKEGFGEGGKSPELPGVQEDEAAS
# Chain of PIM1 (P11309 whole entry): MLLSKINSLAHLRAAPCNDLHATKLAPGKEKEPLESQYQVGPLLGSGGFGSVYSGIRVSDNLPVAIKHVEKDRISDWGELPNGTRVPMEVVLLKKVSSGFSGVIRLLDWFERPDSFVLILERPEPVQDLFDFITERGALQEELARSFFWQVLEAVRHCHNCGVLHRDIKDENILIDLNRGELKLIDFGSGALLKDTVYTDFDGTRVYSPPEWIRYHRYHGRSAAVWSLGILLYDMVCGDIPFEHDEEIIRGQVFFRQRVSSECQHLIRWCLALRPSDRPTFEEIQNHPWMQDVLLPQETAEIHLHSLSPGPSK
# Chain of BLK (P51451 whole entry): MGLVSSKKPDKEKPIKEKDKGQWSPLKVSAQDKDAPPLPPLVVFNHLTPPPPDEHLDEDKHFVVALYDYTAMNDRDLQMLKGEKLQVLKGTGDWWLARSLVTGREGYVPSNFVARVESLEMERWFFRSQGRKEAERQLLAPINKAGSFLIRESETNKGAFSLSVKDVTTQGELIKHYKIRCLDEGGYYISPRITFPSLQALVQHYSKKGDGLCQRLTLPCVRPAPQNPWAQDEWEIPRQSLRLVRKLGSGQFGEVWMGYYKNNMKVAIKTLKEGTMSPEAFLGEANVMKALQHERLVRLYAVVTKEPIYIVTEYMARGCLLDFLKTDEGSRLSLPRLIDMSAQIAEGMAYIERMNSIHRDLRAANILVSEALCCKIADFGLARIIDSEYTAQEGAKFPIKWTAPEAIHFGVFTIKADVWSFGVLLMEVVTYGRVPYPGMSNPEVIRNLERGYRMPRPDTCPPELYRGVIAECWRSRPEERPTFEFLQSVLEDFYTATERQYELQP
# Chain of PKD2/PRKD2 (Q9BZL6 whole entry): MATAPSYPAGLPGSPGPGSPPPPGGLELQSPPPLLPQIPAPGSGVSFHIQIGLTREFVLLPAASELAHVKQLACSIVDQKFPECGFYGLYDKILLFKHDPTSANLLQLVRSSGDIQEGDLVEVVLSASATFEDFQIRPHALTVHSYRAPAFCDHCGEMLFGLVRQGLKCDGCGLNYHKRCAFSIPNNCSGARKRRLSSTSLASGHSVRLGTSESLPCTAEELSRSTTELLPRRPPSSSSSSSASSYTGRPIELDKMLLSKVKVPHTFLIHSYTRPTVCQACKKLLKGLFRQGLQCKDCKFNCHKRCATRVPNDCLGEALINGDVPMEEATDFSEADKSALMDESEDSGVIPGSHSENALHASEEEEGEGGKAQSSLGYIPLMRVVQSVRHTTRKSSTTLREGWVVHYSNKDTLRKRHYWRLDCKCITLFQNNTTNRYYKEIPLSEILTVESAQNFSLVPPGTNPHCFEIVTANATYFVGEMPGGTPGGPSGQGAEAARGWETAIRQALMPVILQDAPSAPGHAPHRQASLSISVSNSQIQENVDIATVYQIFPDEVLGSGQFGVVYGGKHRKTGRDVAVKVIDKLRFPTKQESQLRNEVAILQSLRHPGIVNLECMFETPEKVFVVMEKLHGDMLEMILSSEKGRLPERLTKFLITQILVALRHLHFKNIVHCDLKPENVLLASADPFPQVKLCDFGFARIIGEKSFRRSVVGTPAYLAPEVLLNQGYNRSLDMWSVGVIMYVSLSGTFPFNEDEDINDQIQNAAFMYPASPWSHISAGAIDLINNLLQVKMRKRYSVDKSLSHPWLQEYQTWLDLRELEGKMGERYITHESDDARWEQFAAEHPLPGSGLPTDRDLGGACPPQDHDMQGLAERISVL
# Chain of MNK1 (Q9BUB5 whole entry): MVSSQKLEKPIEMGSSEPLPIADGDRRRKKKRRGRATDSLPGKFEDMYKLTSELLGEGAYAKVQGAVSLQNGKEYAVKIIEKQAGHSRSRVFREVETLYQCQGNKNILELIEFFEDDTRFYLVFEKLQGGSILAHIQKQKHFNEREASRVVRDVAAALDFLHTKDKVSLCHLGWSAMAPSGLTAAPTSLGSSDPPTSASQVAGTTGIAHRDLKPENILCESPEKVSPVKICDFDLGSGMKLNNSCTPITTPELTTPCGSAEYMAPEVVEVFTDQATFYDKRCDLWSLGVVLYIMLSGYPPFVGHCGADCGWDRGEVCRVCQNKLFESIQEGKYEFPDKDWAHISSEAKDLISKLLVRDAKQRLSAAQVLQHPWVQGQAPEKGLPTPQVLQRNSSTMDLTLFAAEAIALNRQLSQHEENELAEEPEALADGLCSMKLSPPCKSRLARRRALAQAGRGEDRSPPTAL
# Chain of SNARK/NUAK2 (Q9H093 whole entry): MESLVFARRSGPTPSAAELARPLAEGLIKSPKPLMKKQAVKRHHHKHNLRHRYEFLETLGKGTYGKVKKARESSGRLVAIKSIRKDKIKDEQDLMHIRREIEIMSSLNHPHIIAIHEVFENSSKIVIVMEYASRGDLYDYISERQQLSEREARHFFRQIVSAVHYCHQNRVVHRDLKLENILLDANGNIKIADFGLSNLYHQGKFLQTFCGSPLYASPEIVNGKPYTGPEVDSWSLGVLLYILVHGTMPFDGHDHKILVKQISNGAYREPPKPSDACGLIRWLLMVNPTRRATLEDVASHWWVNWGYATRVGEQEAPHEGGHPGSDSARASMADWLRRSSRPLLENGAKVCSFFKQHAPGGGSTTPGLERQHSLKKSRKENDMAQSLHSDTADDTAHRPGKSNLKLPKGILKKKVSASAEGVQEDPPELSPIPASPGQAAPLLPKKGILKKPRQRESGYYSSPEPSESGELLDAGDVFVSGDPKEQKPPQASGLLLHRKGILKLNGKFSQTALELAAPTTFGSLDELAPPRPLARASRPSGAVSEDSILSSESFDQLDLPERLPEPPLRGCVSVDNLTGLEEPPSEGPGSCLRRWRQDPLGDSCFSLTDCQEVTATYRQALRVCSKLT
# Chain of STK25/YSK1 (O00506 whole entry): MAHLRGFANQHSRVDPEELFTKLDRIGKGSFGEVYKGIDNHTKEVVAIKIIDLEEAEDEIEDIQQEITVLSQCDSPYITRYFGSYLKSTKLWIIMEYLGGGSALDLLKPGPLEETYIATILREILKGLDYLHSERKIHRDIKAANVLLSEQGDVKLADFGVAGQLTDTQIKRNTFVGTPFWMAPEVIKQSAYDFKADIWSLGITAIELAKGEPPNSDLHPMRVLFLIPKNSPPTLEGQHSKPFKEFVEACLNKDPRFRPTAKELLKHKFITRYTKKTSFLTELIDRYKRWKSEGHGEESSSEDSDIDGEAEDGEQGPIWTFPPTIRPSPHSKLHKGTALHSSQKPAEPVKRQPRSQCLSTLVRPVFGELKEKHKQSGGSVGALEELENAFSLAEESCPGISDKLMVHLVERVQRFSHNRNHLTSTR
# Chain of c-MER (Q12866 21-999): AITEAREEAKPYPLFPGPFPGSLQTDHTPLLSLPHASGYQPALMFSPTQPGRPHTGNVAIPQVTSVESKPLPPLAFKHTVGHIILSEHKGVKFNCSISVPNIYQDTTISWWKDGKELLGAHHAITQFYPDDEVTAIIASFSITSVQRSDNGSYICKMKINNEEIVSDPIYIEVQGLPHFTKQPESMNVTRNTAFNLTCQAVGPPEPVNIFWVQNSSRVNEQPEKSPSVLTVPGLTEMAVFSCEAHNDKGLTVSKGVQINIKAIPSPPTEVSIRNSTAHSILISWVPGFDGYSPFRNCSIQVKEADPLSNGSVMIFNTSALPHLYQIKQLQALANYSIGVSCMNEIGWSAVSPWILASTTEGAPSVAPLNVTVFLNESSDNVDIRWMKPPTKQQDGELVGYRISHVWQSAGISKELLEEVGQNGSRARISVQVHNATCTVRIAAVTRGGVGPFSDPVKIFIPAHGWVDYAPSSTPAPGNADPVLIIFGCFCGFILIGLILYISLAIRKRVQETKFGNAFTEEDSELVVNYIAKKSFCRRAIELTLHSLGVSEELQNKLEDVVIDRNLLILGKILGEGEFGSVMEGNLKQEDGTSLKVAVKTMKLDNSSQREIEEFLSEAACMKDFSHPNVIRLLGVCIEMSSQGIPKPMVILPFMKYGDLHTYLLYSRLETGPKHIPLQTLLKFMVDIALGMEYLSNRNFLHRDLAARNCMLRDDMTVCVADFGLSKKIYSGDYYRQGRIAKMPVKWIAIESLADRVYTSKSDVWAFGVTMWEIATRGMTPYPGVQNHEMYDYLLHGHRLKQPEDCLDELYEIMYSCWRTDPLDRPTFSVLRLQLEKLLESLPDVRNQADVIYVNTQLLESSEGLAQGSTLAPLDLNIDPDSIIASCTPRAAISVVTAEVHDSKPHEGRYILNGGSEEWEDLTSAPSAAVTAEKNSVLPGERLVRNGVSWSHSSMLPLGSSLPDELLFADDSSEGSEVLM
# Chain of NEK7 (Q8TDX7 whole entry): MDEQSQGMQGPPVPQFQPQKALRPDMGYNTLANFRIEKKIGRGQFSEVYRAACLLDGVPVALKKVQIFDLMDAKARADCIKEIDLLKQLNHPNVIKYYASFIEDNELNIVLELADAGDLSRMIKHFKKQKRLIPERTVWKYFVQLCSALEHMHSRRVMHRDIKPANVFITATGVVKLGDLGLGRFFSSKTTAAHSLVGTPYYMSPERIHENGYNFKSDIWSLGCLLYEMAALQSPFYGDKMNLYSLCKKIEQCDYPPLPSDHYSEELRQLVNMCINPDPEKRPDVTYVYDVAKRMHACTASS
compound,measurement,setting,value
"CCn1cnc2c(NCc3ccc(-c4ccccn4)nc3)nc(-c3ccc(N)nc3)nc21 [Example 53, N-([2,2′-bipyridin]-5-ylmethyl)-2-(6-aminopyridin-3-yl)-9-ethyl-9H-purin-6-amine]",anticancer efficacy,[1],dose-dependent anticancer efficacy
same,remaining activity at 10 µM,[2],56.3%
same,remaining activity at 10 µM,[3],9.78%
same,remaining activity at 10 µM,[4],59.9%
same,remaining activity at 10 µM,[5],83.7%
same,remaining activity at 10 µM,[6],69.5%
same,remaining activity at 10 µM,[7],89.2%
same,remaining activity at 10 µM,[8],23.1%
same,remaining activity at 10 µM,[9],95.2%
same,remaining activity at 10 µM,[10],7.25%
same,remaining activity at 10 µM,[11],54.3%
same,remaining activity at 10 µM,[12],73.5%
same,remaining activity at 10 µM,[13],97.8%
same,remaining activity at 10 µM,[14],93.2%
same,remaining activity at 10 µM,[15],45.8%
same,remaining activity at 10 µM,[16],59%
same,remaining activity at 10 µM,[17],84.1%
same,remaining activity at 10 µM,[18],22.9%
same,remaining activity at 10 µM,[19],38%
same,remaining activity at 10 µM,[20],34.8%
same,remaining activity at 10 µM,[21],66.8%
same,remaining activity at 10 µM,[22],72.3%
same,remaining activity at 10 µM,[23],71%
same,remaining activity at 10 µM,[24],97.8%
same,remaining activity at 10 µM,[25],86.6%
same,mouse body weight,[26],without any change in mouse weight
same,remaining activity at 10 µM,[27],86.1%
same,remaining activity at 10 µM,[28],73.6%
same,remaining activity at 10 µM,[29],60.1%
same,remaining activity at 10 µM,[30],18.7%
same,kinase inhibition,[31],≥ 90%
same,remaining activity at 10 µM,[32],96.6%
same,remaining activity at 10 µM,[33],57.2%
same,remaining activity at 10 µM,[34],99.3%
